# Measured values reported in patent US20230278972A1, “SUBSTITUTED HALOALKYL SULFONANILIDE HERBICIDES” (FMC Corporation, priority 2020, published 2023).
# Assays:
# Type in all cases: in vivo
# [1] = system: barnyardgrass (Echinochloa crus-galli); assay: Test A preemergence, barnyardgrass; details: Preemergence; for Barnyardgrass plant response rating: visual injury on 0 to 100 scale (0 no effect, 100 complete control), approximately 10 days; for Plant response rating, Barnyardgrass: 0 to 100 scale (0 no effect, 100 complete control)
# Method in brief: (§1)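 Test chemicals, formulated in a non-phytotoxic solvent mixture with surfactant, were sprayed postemergence on plants 2 to 10 cm tall at the one- to two-leaf stage. Preemergence treatment was a directed soil spray onto freshly seeded pots. Both used a loam soil and sand blend.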
# [2] = system: kochia (Bassia scoparia); assay: Test A preemergence, kochia; details: Preemergence; for Kochia plant response rating: visual injury on 0 to 100 scale (0 no effect, 100 complete control), approximately 10 days; for Plant response rating, Kochia: 0 to 100 scale (0 no effect, 100 complete control)
# Method in brief: as §1
# [3] = system: ragweed (common ragweed, Ambrosia artemisiifolia); assay: Test A preemergence, ragweed; details: Preemergence; for Ragweed plant response rating: visual injury on 0 to 100 scale (0 no effect, 100 complete control), approximately 10 days; for Plant response rating, Ragweed: 0 to 100 scale (0 no effect, 100 complete control)
# Method in brief: as §1
# [4] = system: Ryegrass, Italian (Italian ryegrass, Lolium multiflorum); assay: Test A preemergence, Ryegrass, Italian; details: Preemergence; for Ryegrass, Italian plant response rating: visual injury on 0 to 100 scale (0 no effect, 100 complete control), approximately 10 days; for Plant response rating, Ryegrass, Italian: 0 to 100 scale (0 no effect, 100 complete control)
# Method in brief: as §1
# [5] = system: Foxtail, Giant (giant foxtail, Setaria faberi); assay: Test A preemergence, Foxtail, Giant; details: Preemergence; for Foxtail, Giant plant response rating: visual injury on 0 to 100 scale (0 no effect, 100 complete control), approximately 10 days; for Plant response rating, Foxtail, Giant: 0 to 100 scale (0 no effect, 100 complete control)
# Method in brief: as §1
# [6] = system: pigweed (Amaranthus retroflexus); assay: Test A preemergence, pigweed; details: for Pigweed plant response rating: visual injury on 0 to 100 scale (0 no effect, 100 complete control), approximately 10 days; for Plant response rating, Pigweed: 0 to 100 scale (0 no effect, 100 complete control)
# Method in brief: (§2)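 Postemergence ratings come from foliar sprays onto one- to two-leaf plants of 2 to 10 cm grown in loam/sand; preemergence ratings come from a directed spray onto the soil of newly seeded pots. Formulation was a surfactant-containing non-phytotoxic solvent blend.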
# [7] = system: barnyardgrass (Echinochloa crus-galli); assay: Test A postemergence, barnyardgrass; details: Postemergence, 0 to 100 scale (0 no effect, 100 complete control); for Plant response rating, Barnyardgrass: 125 g ai/ha; for Barnyardgrass plant response rating: 500 g ai/ha, visual injury vs untreated controls after approx. 10 days
# Method in brief: as §2
# [8] = system: kochia (Bassia scoparia); assay: Test A postemergence, kochia; details: Postemergence, 0 to 100 scale (0 no effect, 100 complete control); for Plant response rating, Kochia: 125 g ai/ha; for Kochia plant response rating: 500 g ai/ha, visual injury vs untreated controls after approx. 10 days
# Method in brief: as §1
# [9] = system: ragweed (common ragweed, Ambrosia artemisiifolia); assay: Test A postemergence, ragweed; details: Postemergence, 0 to 100 scale (0 no effect, 100 complete control); for Plant response rating, Ragweed: 125 g ai/ha; for Ragweed plant response rating: 500 g ai/ha, visual injury vs untreated controls after approx. 10 days
# Method in brief: as §1
# [10] = system: Ryegrass, Italian (Italian ryegrass, Lolium multiflorum); assay: Test A postemergence, Ryegrass, Italian; details: Postemergence, 0 to 100 scale (0 no effect, 100 complete control); for Plant response rating, Ryegrass, Italian: 125 g ai/ha; for Ryegrass, Italian plant response rating: 500 g ai/ha, visual injury vs untreated controls after approx. 10 days
# Method in brief: as §1
# [11] = system: Foxtail, Giant (giant foxtail, Setaria faberi); assay: Test A postemergence, Foxtail, Giant; details: Postemergence, 0 to 100 scale (0 no effect, 100 complete control); for Plant response rating, Foxtail, Giant: 125 g ai/ha; for Foxtail, Giant plant response rating: 500 g ai/ha, visual injury vs untreated controls after approx. 10 days
# Method in brief: as §1
# [12] = system: pigweed (Amaranthus retroflexus); assay: Test A postemergence, pigweed; details: Postemergence, 0 to 100 scale (0 no effect, 100 complete control); for Plant response rating, Pigweed: 125 g ai/ha; for Pigweed plant response rating: 500 g ai/ha, visual injury vs untreated controls after approx. 10 days
# Method in brief: as §1
# [13] = system: wheat (Triticum aestivum); assay: Test A postemergence, wheat; details: Postemergence, 0 to 100 scale (0 no effect, 100 complete control); for Plant response rating, Wheat: 125 g ai/ha; for Wheat plant response rating: 500 g ai/ha, visual injury vs untreated controls after approx. 10 days
# Method in brief: as §2
# [14] = system: corn (Zea mays); assay: Test A postemergence, corn; details: Postemergence, 0 to 100 scale (0 no effect, 100 complete control); for Plant response rating, Corn: 125 g ai/ha; for Corn plant response rating: 500 g ai/ha, visual injury vs untreated controls after approx. 10 days
# Method in brief: as §1
# [15] = system: blackgrass (Alopecurus myosuroides); assay: Test A postemergence, blackgrass; details: Postemergence, 0 to 100 scale (0 no effect, 100 complete control); for Plant response rating, Blackgrass: 125 g ai/ha; for Blackgrass plant response rating: 500 g ai/ha, visual injury vs untreated controls after approx. 10 days
# Method in brief: as §1
# [16] = system: galium (catchweed bedstraw, Galium aparine); assay: Test A postemergence, galium; details: Postemergence, 0 to 100 scale (0 no effect, 100 complete control); for Plant response rating, Galium: 125 g ai/ha; for Galium plant response rating: 500 g ai/ha, visual injury vs untreated controls after approx. 10 days
# Method in brief: as §2
# [17] = 125 g ai/ha, visual injury, approx. 10 days
smiles,measurement,setting,value
CCn1nccc(-c2cc(NS(=O)(=O)C(F)(F)F)c(C)cc2F)c1=O [Compound 55],Barnyardgrass plant response rating,[1]; 125 g ai/ha,0
same,"Plant response rating, Barnyardgrass",[1]; 500 g ai/ha,100
same,Kochia plant response rating,[2]; 125 g ai/ha,80
same,"Plant response rating, Kochia",[2]; 500 g ai/ha,80
same,Ragweed plant response rating,[3]; 125 g ai/ha,20
same,"Plant response rating, Ragweed",[3]; 500 g ai/ha,90
same,"Ryegrass, Italian plant response rating",[4]; 125 g ai/ha,70
same,"Plant response rating, Ryegrass, Italian",[4]; 500 g ai/ha,90
same,"Foxtail, Giant plant response rating",[5]; 125 g ai/ha,60
same,"Plant response rating, Foxtail, Giant",[5]; 500 g ai/ha,100
same,Pigweed plant response rating,[6]; 125 g ai/ha,70
same,"Plant response rating, Pigweed",[6]; 500 g ai/ha,90
same,"Plant response rating, Barnyardgrass",[7]; visual injury approx. 10 days,30
same,Barnyardgrass plant response rating,[7],40
same,"Plant response rating, Kochia",[8]; visual injury approx. 10 days,60
same,Kochia plant response rating,[8],80
same,"Plant response rating, Ragweed",[9]; visual injury approx. 10 days,20
same,Ragweed plant response rating,[9],40
same,"Plant response rating, Ryegrass, Italian",[10]; visual injury approx. 10 days,50
same,"Ryegrass, Italian plant response rating",[10],60
same,"Plant response rating, Foxtail, Giant",[11]; visual injury approx. 10 days,20
same,"Foxtail, Giant plant response rating",[11],90
same,"Plant response rating, Pigweed",[12]; visual injury approx. 10 days,20
same,Pigweed plant response rating,[12],70
same,"Plant response rating, Wheat",[13]; visual injury approx. 10 days,20
same,Wheat plant response rating,[13],70
same,"Plant response rating, Corn",[14]; visual injury approx. 10 days,0
same,Corn plant response rating,[14],50
same,"Plant response rating, Blackgrass",[15]; visual injury approx. 10 days,0
same,Blackgrass plant response rating,[15],20
same,"Plant response rating, Galium",[16]; visual injury approx. 10 days,90
same,Galium plant response rating,[16],90
Cc1cc(F)c(-c2ccnn(C)c2=O)cc1NS(=O)(=O)C(F)(F)F [Compound 63],Barnyardgrass plant response rating,[1]; 125 g ai/ha,70
same,"Plant response rating, Barnyardgrass",[1]; 500 g ai/ha,90
same,Kochia plant response rating,[2]; 125 g ai/ha,40
same,"Plant response rating, Kochia",[2]; 500 g ai/ha,90
same,Ragweed plant response rating,[3]; 125 g ai/ha,30
same,"Plant response rating, Ragweed",[3]; 500 g ai/ha,80
same,"Ryegrass, Italian plant response rating",[4]; 125 g ai/ha,90
same,"Plant response rating, Ryegrass, Italian",[4]; 500 g ai/ha,100
same,"Foxtail, Giant plant response rating",[5]; 125 g ai/ha,90
same,"Plant response rating, Foxtail, Giant",[5]; 500 g ai/ha,100
same,Pigweed plant response rating,[6]; 125 g ai/ha,70
same,"Plant response rating, Pigweed",[6]; 500 g ai/ha,90
same,"Plant response rating, Barnyardgrass",[7]; visual injury approx. 10 days,10
same,Barnyardgrass plant response rating,[7],90
same,"Plant response rating, Kochia",[8]; visual injury approx. 10 days,70
same,Kochia plant response rating,[8],90
same,"Plant response rating, Ragweed",[9]; visual injury approx. 10 days,10
same,Ragweed plant response rating,[9],60
same,"Plant response rating, Ryegrass, Italian",[10]; visual injury approx. 10 days,30
same,"Ryegrass, Italian plant response rating",[10],70
same,"Plant response rating, Foxtail, Giant",[11]; visual injury approx. 10 days,70
same,"Foxtail, Giant plant response rating",[11],90
same,"Plant response rating, Pigweed",[12]; visual injury approx. 10 days,30
same,Pigweed plant response rating,[12],80
same,"Plant response rating, Wheat",[13]; visual injury approx. 10 days,0
same,Wheat plant response rating,[13],80
same,"Plant response rating, Corn",[14]; visual injury approx. 10 days,0
same,Corn plant response rating,[14],50
same,"Plant response rating, Blackgrass",[15]; visual injury approx. 10 days,0
same,Blackgrass plant response rating,[15],40
same,"Plant response rating, Galium",[16]; visual injury approx. 10 days,90
same,Galium plant response rating,[16],90
COC1CCN(C(=O)c2cc(NS(=O)(=O)C(F)(F)F)c(C)c(F)c2C)CC1 [Compound 110],Barnyardgrass plant response rating,[1]; 125 g ai/ha,40
same,"Plant response rating, Barnyardgrass",[1]; 500 g ai/ha,90
same,Kochia plant response rating,[2]; 125 g ai/ha,80
same,"Plant response rating, Kochia",[2]; 500 g ai/ha,100
same,Ragweed plant response rating,[3]; 125 g ai/ha,80
same,"Plant response rating, Ragweed",[3]; 500 g ai/ha,90
same,"Ryegrass, Italian plant response rating",[4]; 125 g ai/ha,20
same,"Plant response rating, Ryegrass, Italian",[4]; 500 g ai/ha,90
same,"Foxtail, Giant plant response rating",[5]; 125 g ai/ha,90
same,"Plant response rating, Foxtail, Giant",[5]; 500 g ai/ha,100
same,Pigweed plant response rating,[6]; 125 g ai/ha,80
same,"Plant response rating, Pigweed",[6]; 500 g ai/ha,100
same,"Plant response rating, Barnyardgrass",[7]; visual injury approx. 10 days,20
same,Barnyardgrass plant response rating,[7],80
same,"Plant response rating, Kochia",[8]; visual injury approx. 10 days,10
same,Kochia plant response rating,[8],50
same,"Plant response rating, Ragweed",[9]; visual injury approx. 10 days,90
same,Ragweed plant response rating,[9],90
same,"Plant response rating, Ryegrass, Italian",[10]; visual injury approx. 10 days,0
same,"Ryegrass, Italian plant response rating",[10],50
same,"Plant response rating, Foxtail, Giant",[11]; visual injury approx. 10 days,0
same,"Foxtail, Giant plant response rating",[11],90
same,"Plant response rating, Pigweed",[12]; visual injury approx. 10 days,70
same,Pigweed plant response rating,[12],100
same,"Plant response rating, Wheat",[13]; visual injury approx. 10 days,20
same,Wheat plant response rating,[13],60
same,"Plant response rating, Corn",[14]; visual injury approx. 10 days,0
same,Corn plant response rating,[14],10
same,"Plant response rating, Blackgrass",[15]; visual injury approx. 10 days,0
same,Blackgrass plant response rating,[15],0
same,"Plant response rating, Galium",[16]; visual injury approx. 10 days,70
same,Galium plant response rating,[16],80
Cc1cc(F)c(C(=O)N2CCOCC2)cc1N(S(=O)(=O)C(F)(F)F)S(=O)(=O)C(F)(F)F [Compound 237],"Plant response rating, Barnyardgrass",[1]; [17],40
same,"Plant response rating, Barnyardgrass",[1]; 500 g ai/ha,30
same,"Plant response rating, Kochia",[2]; [17],90
same,Kochia plant response rating,[2]; 500 g ai/ha,90
same,"Plant response rating, Ragweed",[3]; [17],30
same,Ragweed plant response rating,[3]; 500 g ai/ha,80
same,"Plant response rating, Ryegrass, Italian",[4]; [17],20
same,"Ryegrass, Italian plant response rating",[4]; 500 g ai/ha,50
same,"Plant response rating, Foxtail, Giant",[5]; [17],20
same,"Foxtail, Giant plant response rating",[5]; 500 g ai/ha,40
same,"Plant response rating, Pigweed",[6]; [17],80
same,Pigweed plant response rating,[6]; 500 g ai/ha,100
same,"Plant response rating, Barnyardgrass",[7],20
same,Barnyardgrass plant response rating,[7],40
same,"Plant response rating, Kochia",[8],70
same,Kochia plant response rating,[8],90
same,"Plant response rating, Ragweed",[9],50
same,Ragweed plant response rating,[9],80
same,"Plant response rating, Ryegrass, Italian",[10],40
same,"Ryegrass, Italian plant response rating",[10],40
same,"Plant response rating, Foxtail, Giant",[11],20
same,"Foxtail, Giant plant response rating",[11],40
same,"Plant response rating, Pigweed",[12],30
same,Pigweed plant response rating,[12],60
same,"Plant response rating, Wheat",[13],0
same,Wheat plant response rating,[13],0
same,"Plant response rating, Corn",[14],0
same,Corn plant response rating,[14],20
same,"Plant response rating, Blackgrass",[15],0
same,Blackgrass plant response rating,[15],0
same,"Plant response rating, Galium",[16],0
same,Galium plant response rating,[16],50
